In patent US20090179638A1, “ASSAY FOR IDENTIFYING INHIBITORS OF NEURONAL APOPTOTIC PATHWAYS” (AEGERA THERAPEUTICS INC., priority 2006, published 2009):

What was measured:
JNK = experiment: NRAGE- and p75NTR-induced JNK activation in PC12rtTA cells (c-Jun phosphorylation, caspase-3 cleavage, immunoblot); format: cell-based; conditions: for c-Jun phosphorylation: AdNRG infected, 30 hours (FIG. 6C)
Method: FIGS. 2C and 2D are photographs of Western blots which illustrate that compound 1 inhibits NRAGE- and p75NTR-induced JNK activation. C, D: Compound 1 inhibits NRAGE- and p75NTR-induced JNK activation. PC12^rtTA cells were infected with AdNRG at 5 MOI (C), with Adp75 at 50 MOI (D), or with AdLacZ at an equivalent MOI for each experiment, as indicated. At time of infection, the cells were treated with increasing concentrations of compound 1, or with vehicle alone, as indicated. […] Experiments in Panel A-D were performed three times with essentially identical results.
Activation of JNK activity is necessary for the induction of p75NTR- or NRAGE-initiated caspase cleavage and cell death (Bhakar et al., 2003; Salehi et al., 2002). Therefore, the effect of compound 1 on the activity of JNK was assessed by analyzing alterations in the phosphorylation level of the JNK target, c-Jun, and the cleavage status of caspase-3. […] Thus, the suppression of JNK signaling and caspase-3 cleavage mediated by compound 1 occurred with a dose-dependency similar to the anti-apoptotic activity of compound 1.
Cell culture, infection, transfection and immunoblotting. Sympathetic neurons were maintained and deprived of NGF as previously described (Bamji et al., 1998; Ma et al., 1992). PC12^rtTA cells were maintained and infected as previously described (Majdan et al., 1997; Salehi et al., 2002); for NRAGE, […] doxycycline was added to all plates at time of infection. Wildtype and HSF1 nullizygous immortalized mouse embryonic fibroblasts (MEFs) were maintained in DMEM containing 10% fetal calf serum, 1 μM β-mercaptoethanol, 1% non-essential amino acids, 1% L-glutamine, 1% antimycotic solution and 1% sodium pyruvate (all from GibcoBRL). Sympathetic neuron survival was assessed using the MTS assay according to the manufacturer's instructions (Promega). Analysis of PC12 cell death was determined using a lactate dehydrogenase (LDH) assay (Roche) as per the manufacturer's instructions. Transfections using plasmids or RNAi were performed using Lipofectamine 2000. Immunoblotting was performed as previously described (Majdan et al., 1997; Salehi et al., 2002).

HSP70 = experiment: HSP protein expression in PC12 / PC12rtTA cells (immunoblot); format: cell-based; conditions: for HSP70 production: PC12rtTA cells infected with AdNRG, Adp75 or AdLacZ, 30 hours (FIG. 6A)
Method: FIGS. 4A-4C are photographs of Western blots which illustrate that compound 1 treatment of PC12 cells induces expression of HSP70. A: PC12 cells were infected with 5 MOI of AdNRG (NRG) or AdLacZ (LacZ) as indicated. Cells were left untreated (0) or treated with 40 μM compound 1 at time of infection (30), one hour before lysis (1), or at both times (30+1). Cells were lysed thirty hours after infection, normalized for protein content, and analyzed for levels of phospho-Ser^63 c-Jun and total c-Jun, total JNK, IkBα, and NRAGE by immunoblotting. Lysates from untreated cells are indicated by ‘−’. B: PC12 cells were treated with the indicated concentrations of compound 1 for 18 hours and then lysed, normalized for protein content, and analyzed for levels of HSP70 by immunoblotting. Lysates from untreated cells are indicated by ‘−’. C: RNA isolated from PC12^rtTA cells treated with increasing concentrations of compound 1 for 18 hours was analyzed by rtPCR using primers specific to HSP70, HSP25, HSP90 or actin, as indicated. Experiments in Panel A and B were performed three times and that in Panel C was performed twice, with essentially identical results. D: PC12^rtTA cells were infected with AdNRG at 5 MOI, Adp75 at 50 MOI, or the control virus AdLacZ at 50 MOI. At time of infection, the cells were treated with increasing concentrations of compound 1, or with vehicle alone, as indicated. Thirty hours after infection, cells were lysed, normalized for protein content, and analyzed for levels of c-Jun phosphorylation, HSP70, HSP25, HSP40, NRAGE, p75NTR, JNK-1 and IkBα, as indicated.
FIGS. 6A, 6B and 6C are graphs and photographs of Western blots which illustrate that compound 1 analogues inhibit JNK activation and induce expression of HSP70. A: PC12^rtTA cells were infected with 5 MOI of AdNRG, 50 MOI of Adp75 or 50 MOI of the control virus AdLacZ. At time of infection, the cells were treated with an increasing concentrations of compound 1, or its analogues, compound 2, compound 3, compound 4, or with vehicle alone, as indicated. Thirty hours after infection, cells were lysed, normalized for protein levels, and analyzed for levels of HSP70, HSP25 and JNK-1, as indicated. B: PC12^rtTA cells were treated as above and after 40 hours infection were assayed for death using the lactate dehydrogenase (LDH) assay. Results are normalized relative to those obtained with 1% Triton, and represent the mean±standard deviation of a representative experiment performed in triplicate (*=P<0.025 relative to ‘0’ for each compound concentration). C: PC12^rtTA cells were infected with 50 MOI of LacZ or 5 MOI of AdNRG50 and at the time of infection, were treated with 40 μM compound 1, or its analogues, compound 2, compound 3, compound 4, or with vehicle alone, as indicated. Thirty hours after infection, cells were lysed, normalized for protein levels, and were analyzed for phosphorylated c-Jun, total c-Jun, NRAGE and JNK-1, as indicated. Experiments in Panel A and C were performed twice and that in B were performed twice, with essentially identical results.
To address this, SCG neurons were treated with compound 1 for 18 hours then lysed and assessed for HSP70 levels by immunoblot. Uninfected PC12rtTA cells were treated in a similar manner. […] To test if the accumulation of HSP70 induced by compound 1 reflected increased steady state levels of its mRNA, RNA was isolated from PC12 cells treated with increasing concentrations of compound 1 for 18 hours and the cell lysates subjected to semi-quantitative rtPCR. […] HSP protein levels were also assessed in PC12rtTA cells infected with AdLacZ, Adp75, or AdNRG, and at the same time, exposed to compound 1.

[1] = cells infected with LacZ or Adp75, increasing concentrations

Row | Compound | c-Jun phosphorylation and caspase-3 cleavage (JNK; 10 μM, AdNRG infected cells) | decrease in c-Jun phosphorylation and caspase-3 cleavage (JNK; 40 μM, AdNRG infected cells) | c-Jun phosphorylation (JNK; 40 μM) | ability to block c-jun phosphorylation in cells transfected with HSP70 RNAi (JNK; HSP70 siRNA transfected PC12rtTA cells) | JNK inhibitory effects (JNK; extended (24 hour) incubation, 40 μM) | JNK inhibitory effects (JNK; short term (1 hr) incubation, 40 μM) | HSP70 production (HSP70) | HSP70 levels versus AdNRG alone (HSP70; cells infected with AdNRG) | HSP40 protein level (HSP70; [1]) | HSP70 and HSP25 protein levels (HSP70; [1]) | cellular HSP70 levels (HSP70; uninfected PC12rtTA cells, 18 hours)
1 | NS(=O)(=O)c1nn2cc(-c3ccccc3)nc2s1 [Compound 1] | significant decrease | virtually complete | reducing | small but consistent attenuation | occurred | not short term | induced HSP70 production | substantially higher | not HSP40 | robust increase | large increase
2 | NS(=O)(=O)c1nn2cc(-c3ccc(N4CCOCC4)cc3)nc2s1 [Compound 2] | – | – | reducing | – | – | – | robustly induced HSP70 production | – | – | – | –
